Experimental data reported in the supplement of paper PMC11061612.

How the values were obtained:
Assay in all cases: combination Emax (second highest fraction inhibited in the dose matrix, 72 h); higher = more inhibition; extreme values may be limits of the assay
[1] = system: 5637 (Bladder Carcinoma)
How it was run: (§1)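 Cell lines grown in DMEM/F12 or RPMI with 10% FBS were plated in 1536-well plates and held 24 hours at 37°C, 5% CO2 before 72 hours of exposure to two-drug dose matrices, with DMSO typically at 0.2%. CellTiter-Glo 2.0 luminescence gave viability, which was converted to inhibition. Vehicle wells were set to 0 and blank wells to 1. Combination Emax is the second-highest inhibition in the matrix, and Bliss excess is the observed combination effect minus the expected EA + EB − EA·EB, where EA and EB are the single-agent effects.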

[2] = system: 769-P (Kidney Carcinoma)
How it was run: as §1

[3] = system: A253 (Head and Neck Carcinoma)
How it was run: as §1

[4] = system: A2780 (Ovarian Carcinoma)
How it was run: as §1

[5] = system: CAL-27 (Oral Cavity Carcinoma)
How it was run: as §1

[6] = system: DU-4475 (Breast Carcinoma)
How it was run: as §1

[7] = system: EB2 (Burkitt's Lymphoma)
How it was run: as §1

[8] = system: EPLC-272H (Other Solid Carcinomas)
How it was run: as §1

[9] = system: EW-16 (Ewing's Sarcoma)
How it was run: as §1

[10] = system: G-402 (Other Solid Carcinomas)
How it was run: as §1

[11] = system: HCC1428 (Breast Carcinoma)
How it was run: as §1

[12] = system: Jurkat (T-Lymphoblastic Leukemia)
How it was run: as §1

[13] = system: KYSE-140 (Esophageal Squamous Cell Carcinoma)
How it was run: as §1

[14] = system: LU-165 (Small Cell Lung Carcinoma)
How it was run: as §1

[15] = system: MHH-ES-1 (Ewing's Sarcoma)
How it was run: as §1

[16] = system: OACp4C (Esophageal Adenocarcinoma)
How it was run: as §1

[17] = system: PEO1 (Ovarian Carcinoma)
How it was run: as §1

[18] = system: RH-41 (Rhabdomyosarcoma)
How it was run: as §1

[19] = system: SK-HEP-1 (Hepatocellular Carcinoma)
How it was run: as §1

[20] = system: WM1552C (Melanoma)
How it was run: as §1

SMILES | combination Emax [1] | combination Emax [2] | combination Emax [3] | combination Emax [4] | combination Emax [5] | combination Emax [6] | combination Emax [7] | combination Emax [8] | combination Emax [9] | combination Emax [10] | combination Emax [11] | combination Emax [12] | combination Emax [13] | combination Emax [14] | combination Emax [15] | combination Emax [16] | combination Emax [17] | combination Emax [18] | combination Emax [19] | combination Emax [20]
CCN(CCO)CCCOc1ccc2c(Nc3cc(CC(=O)Nc4cccc(F)c4)[nH]n3)ncnc2c1 [AZD2811] + O=C(c1cc(Cc2n[nH]c(=O)c3ccccc23)ccc1F)N1CCN(C(=O)C2CC2)CC1 [Olaparib] (first compound max 1 µM, 7x7, partner max 10 µM) | 0.622 | 0.144 | 0.25 | 0.717 | 0.778 | 0.576 | 0.373 | 0.204 | 0.626 | 0.605 | 0.218 | 0.384 | 0.355 | 0.29 | 0.76 | 0.408 | 0.29 | 0.245 | 0.362 | 0.377
CN(C)CCCOc1ccc(-c2ccc3ncc4c(c3c2)n(C2CCOCC2)c(=O)n4C)cn1 [AZD0156] + CCN(CCO)CCCOc1ccc2c(Nc3cc(CC(=O)Nc4cccc(F)c4)[nH]n3)ncnc2c1 [AZD2811] (first compound max 1 µM, 7x7, partner max 1 µM) | 0.609 | 0.0806 | 0.212 | 0.609 | 0.546 | 0.392 | 0.416 | 0.415 | 0.423 | 0.532 | 0.161 | 0.309 | 0.288 | 0.114 | 0.55 | 0.598 | 0.157 | 0.235 | 0.255 | 0.242
Cc1c2c(nn1C)CSCc1cc(n(C)n1)CSc1cc(c3ccccc3c1)OCCCc1c(C(=O)O)n(C)c3c-2c(Cl)ccc13 [AZD5991] + CC1(C)CCC(CN2CCN(c3ccc(C(=O)NS(=O)(=O)c4ccc(NCC5CCOCC5)c([N+](=O)[O-])c4)c(Oc4cnc5[nH]ccc5c4)c3)CC2)=C(c2ccc(Cl)cc2)C1 [Venetoclax] (first compound max 1 µM, 7x7, partner max 1 µM) | 0.217 | 0.122 | 0.868 | 0.817 | 0.955 | 0.447 | 0.332 | 0.901 | 0.273 | 0.926 | 0.987 | 0.888 | 0.485 | 0.291 | 0.852 | 0.74 | 0.164 | 1 | 0.45 | 0.735
CS(=O)(=O)CCNCc1ccc(-c2ccc3ncnc(Nc4ccc(OCc5cccc(F)c5)c(Cl)c4)c3c2)o1 [Lapatinib] + C[C@@H](Oc1cc(-c2cnn(C3CCNCC3)c2)cnc1N)c1c(Cl)ccc(F)c1Cl [Crizotinib] (first compound max 10 µM, 7x7, partner max 10 µM) | 1 | 0.966 | 0.907 | 0.98 | 0.958 | 0.989 | 0.768 | 0.959 | 0.969 | 0.879 | 0.471 | 0.947 | 0.881 | 0.441 | 0.912 | 1 | 0.718 | 0.991 | 0.255 | 0.921
COc1nnc2ccc(N3CCC(c4ccc(OCCN5CCN(C)C(=O)[C@H]5C)cc4)CC3)nn12 [AZD5153] + Cc1c2c(nn1C)CSCc1cc(n(C)n1)CSc1cc(c3ccccc3c1)OCCCc1c(C(=O)O)n(C)c3c-2c(Cl)ccc13 [AZD5991] (first compound max 1 µM, 7x7, partner max 1 µM) | 0.637 | 0.727 | 0.816 | 0.977 | 1 | 0.974 | 0.608 | 0.959 | 0.486 | 0.987 | 0.984 | 1 | 0.603 | 0.65 | 0.911 | 0.789 | 0.432 | 1 | 0.583 | 0.888
CN(C)CCCOc1ccc(-c2ccc3ncc4c(c3c2)n(C2CCOCC2)c(=O)n4C)cn1 [AZD0156] + C=CCn1c(=O)c2cnc(Nc3ccc(N4CCN(C)CC4)cc3)nc2n1-c1cccc(C(C)(C)O)n1 [AZD1775] (first compound max 1 µM, partner max 1 µM) | 0.745 | 0.766 | 0.327 | 0.79 | 0.376 | 0.924 | 0.841 | 0.771 | 0.307 | 0.363 | 0.125 | 0.879 | 0.844 | 0.38 | 0.671 | 0.83 | 0.341 | 0.948 | 0.469 | 0.476
COc1cccc(OCCCN)c1-c1cc(Nc2cnc(C#N)cn2)n[nH]1 [Prexasertib] + C=CCn1c(=O)c2cnc(Nc3ccc(N4CCN(C)CC4)cc3)nc2n1-c1cccc(C(C)(C)O)n1 [AZD1775] (first compound max 1 µM, partner max 1 µM) | 0.924 | 0.867 | 0.93 | 0.945 | 0.777 | 0.997 | 0.936 | 0.914 | 0.75 | 0.731 | 0.688 | 1 | 0.959 | 0.604 | 0.861 | 0.835 | 0.478 | 1 | 0.65 | 0.885
Cc1c2c(nn1C)CSCc1cc(n(C)n1)CSc1cc(c3ccccc3c1)OCCCc1c(C(=O)O)n(C)c3c-2c(Cl)ccc13 [AZD5991] + C[C@@H]1COCCN1C2=NC(=NC(=C2)C3(CC3)[S@](=N)(=O)C)C4=C5C=CNC5=NC=C4 [AZD6738] (first compound max 1 µM, 7x7, partner max 10 µM) | 0.787 | 0.797 | 0.976 | 0.922 | 1 | 0.978 | 0.8 | 0.993 | 0.756 | 0.995 | 0.974 | 0.974 | 0.925 | 0.321 | 0.837 | 0.851 | 0.522 | 1 | 0.354 | 0.836
Cc1c2c(nn1C)CSCc1cc(n(C)n1)CSc1cc(c3ccccc3c1)OCCCc1c(C(=O)O)n(C)c3c-2c(Cl)ccc13 [AZD5991] + Cc1cc2ncnn2cc1Nc1ncc2c(n1)n(C1CCOCC1)c(=O)n2C [AZD7648] (first compound max 1 µM, 7x7, partner max 10 µM) | 0.233 | 0.32 | 0.849 | 0.751 | 0.985 | 0.297 | 0.465 | 0.94 | 0.299 | 0.939 | 0.977 | 0.951 | 0.401 | 0.265 | 0.688 | 0.485 | 0.178 | 1 | 0.295 | 0.71
COc1cccc(OCCCN)c1-c1cc(Nc2cnc(C#N)cn2)n[nH]1 [Prexasertib] + CN(C)CCCOc1ccc(-c2ccc3ncc4c(c3c2)n(C2CCOCC2)c(=O)n4C)cn1 [AZD0156] (first compound max 1 µM, 7x7, partner max 1 µM) | 0.849 | 0.898 | 0.774 | 0.673 | 0.421 | 0.951 | 0.909 | 0.924 | 0.516 | 0.562 | 0.408 | 0.992 | 0.959 | 0.561 | 0.722 | 0.672 | 0.388 | 0.944 | 0.379 | 0.844
Cn1cnc2c(F)c(Nc3ccc(Br)cc3Cl)c(C(=O)NOCCO)cc21 [Selumetinib] + C[C@@H]1COCCN1C2=NC(=NC(=C2)C3(CC3)[S@](=N)(=O)C)C4=C5C=CNC5=NC=C4 [AZD6738] (first compound max 10 µM, 7x7, partner max 10 µM) | 0.633 | 0.888 | 0.636 | 0.829 | 0.63 | 1 | 0.755 | 0.902 | 0.587 | 0.645 | 0.187 | 0.913 | 0.786 | 0.304 | 0.525 | 0.856 | 0.441 | 0.736 | 0.223 | 0.59
C=CCn1c(=O)c2cnc(Nc3ccc(N4CCN(C)CC4)cc3)nc2n1-c1cccc(C(C)(C)O)n1 [AZD1775] + C[C@@H]1COCCN1C2=NC(=NC(=C2)C3(CC3)[S@](=N)(=O)C)C4=C5C=CNC5=NC=C4 [AZD6738] (first compound max 1 µM, partner max 10 µM) | 0.898 | 0.847 | 0.863 | 0.938 | 0.682 | 1 | 0.88 | 0.882 | 0.771 | 0.674 | 0.49 | 0.991 | 0.967 | 0.48 | 0.714 | 0.831 | 0.6 | 0.995 | 0.65 | 0.805
COc1cccc(OCCCN)c1-c1cc(Nc2cnc(C#N)cn2)n[nH]1 [Prexasertib] + O=C(c1cc(Cc2n[nH]c(=O)c3ccccc23)ccc1F)N1CCN(C(=O)C2CC2)CC1 [Olaparib] (first compound max 1 µM, 7x7, partner max 10 µM) | 0.852 | 0.751 | 0.794 | 0.71 | 0.78 | 0.98 | 0.916 | 0.894 | 0.793 | 0.524 | 0.622 | 0.994 | 0.826 | 0.424 | 0.954 | 0.642 | 0.388 | 0.95 | 0.338 | 0.711
